According to patent US20210046096A1, “Pharmaceutical Composition of Brigatinib” (Sandoz AG, priority 2018, published 2021):
Read-outs that look alike come from different tables or passages of the source.

Assays:
[1] = Moisture stability at accelerated stress conditions, analysed by PXRD; type: physicochemical; conditions: open storage, physical form by PXRD
Procedure: Powder X-ray diffraction was performed with a PANalytical X'Pert PRO diffractometer equipped with a theta/theta coupled goniometer in transmission geometry, Cu-Kalpha1,2 radiation (wavelength 0.15419 nm) with a focusing mirror and a solid state PIXcel detector. Diffractograms were recorded at a tube voltage of 45 kV and a tube current of 40 mA, applying a stepsize of 0.013° 2-Theta with 40 s per step (255 channels) in the angular range of 2° to 40° 2-Theta at ambient conditions.
Moisture stability at accelerated stress conditions was performed in a Memmert constant climate chamber HPP110. 30-50 mg of a given solid composition prepared according to the Examples and Comparative Example herein were exposed to an atmosphere having a relative humidity of 75±0.5% and a temperature of 40±0.5° C. for a period of time as indicated in Tables 1-3 below and analyzed via PXRD as described above.
Brigatinib (1.50 g, e.g. prepared according to the procedures disclosed in WO 2016/065028 A1, part V) was dissolved in 75 mL of acetonitrile/water solution (volume ratio 50:50). The solution was filtered. The homogeneous solution was frozen in a bath of liquid nitrogen and lyophilized at a pressure of from 0.02 to 1.0 mbar, yielding amorphous brigatinib, as confirmed by the PXRD depicted in FIG. 1. The obtained amorphous brigatinib was stored open under accelerated stability conditions (temperature: 40° C., relative humidity: 75%).
Brigatinib (about 100 mg, e.g. prepared according to the procedures disclosed in WO 2016/065028 A1, part V) and the organic polymer (about 100 mg) according to Table 2 were dissolved in 7 to 8 mL of acetonitrile/water solution (volume ratio 50:50). The homogeneous solution was frozen in a bath of liquid nitrogen and lyophilized at a pressure of from 0.02 to 1.0 mbar, yielding an amorphous solid dispersion of brigatinib. The so obtained solid dispersion was open stored under accelerated stability conditions (temperature: 40° C., relative humidity: 75%) for three weeks. […]

[2] = Stability in the amorphous state upon storage (PXRD), general statements; type: physicochemical; conditions: conditions not given, judged by PXRD
Description: The brigatinib in the context of the solid dispersion of the present invention is stable in the amorphous state upon storage, as judged by the absence of characteristic PXRD peaks after storage. […] Also in the context of solid dispersions with carriers such as polyvinylpyrrolidon PVP-40000 or Syloid® AL-1FP, amorphous brigatinib converts to crystalline brigatinib upon storage.

[3] = cited from earlier work
[4] = Thermogravimetric mass spectroscopy (TGMS) thermal stability; type: physicochemical; conditions: heated 25° C. to 250° C. at 10° C./min
Procedure: Thermogravimetric analysis (TGA) was performed on a Mettler Toledo TGA/DSC 1 instrument. Samples were heated in 100 μl aluminium pans closed with aluminium lids. Lids were automatically pierced at the beginning of the measurement. Samples were initially kept at 25° C. for 2.5 minutes and then heated from room temperature to 250° C. at a rate of 10° C./min. Nitrogen (purge rate 30 ml/min) was used as purge gas.
Mass spectrometry (MS) measurements, coupled with thermogravimetric analysis (TGA), were performed with a Pfeiffer GSD 320 ThermoStar Gas Analysis System. A part of the headspace was evacuated with a capillary placed near the TG sample pan, and mass fragments between 1-100 atomic mass units (amu) were analyzed simultaneously without further separation applying a secondary electron multiplier (SEM) for signal amplification.

[5] = as described in WO 2016/065028 A1

## COc1cc(N2CCC(N3CCN(C)CC3)CC2)ccc1Nc1ncc(Cl)c(Nc2ccccc2P(C)(C)=O)n1 [Brigatinib, 5-chloro-N4-[2-(dimethylphosphoryl)phenyl]-N2-[2-methoxy-4-[4-(4-methylpiperazin-1-yl)piperidin-1-yl]phenyl]pyrimidine-2,4-diamine]
[1]
  PXRD analysis after storage at 40° C. and 75% RH for 1 week: Form A
[1]; listed as neat amorphous brigatinib
  PXRD analysis after storage at 40° C. and 75% RH for 1 week: contained crystalline Form A
[1]; 3 weeks
  PXRD analysis after storage at 40° C. and 75% RH for 3 weeks: Form A
[2]
  Stability of the amorphous state upon storage: readily converts to crystalline form A of brigatinib upon storage for as short as one week only

## COc1cc(N2CCC(N3CCN(C)CC3)CC2)ccc1Nc1ncc(Cl)c(Nc2ccccc2P(C)(C)=O)n1 [Form B, 5-chloro-N4-[2-(dimethylphosphoryl)phenyl]-N2-[2-methoxy-4-[4-(4-methylpiperazin-1-yl)piperidin-1-yl]phenyl]pyrimidine-2,4-diamine]
[3]; [5]
  Hygroscopicity: hydroscopic
  Relative humidity at which the form reversibly converts to hydrated crystalline forms C or D: above 30%
[3]; elevated temperature, WO 2016/065028 A1
  Temperature at which the form transforms to form A: above 150 °C

## COc1cc(N2CCC(N3CCN(C)CC3)CC2)ccc1Nc1ncc(Cl)c(Nc2ccccc2P(C)(C)=O)n1 [brigatinib form A, 5-chloro-N4-[2-(dimethylphosphoryl)phenyl]-N2-[2-methoxy-4-[4-(4-methylpiperazin-1-yl)piperidin-1-yl]phenyl]pyrimidine-2,4-diamine]
[3]; as described in WO 2016/065028 A1, listed as Form A
  Hygroscopicity: non-hygroscopic
[4]
  Temperature at which the chemistry of the sample changes (TGMS): about 100 °C
